Data set [1] concerns the target T1, hY1R (Homo sapiens, UniProt P25929).
T1 construct: host or cells: SK-N-MC neuroblastoma cells
T1 sequence (P25929 1-384): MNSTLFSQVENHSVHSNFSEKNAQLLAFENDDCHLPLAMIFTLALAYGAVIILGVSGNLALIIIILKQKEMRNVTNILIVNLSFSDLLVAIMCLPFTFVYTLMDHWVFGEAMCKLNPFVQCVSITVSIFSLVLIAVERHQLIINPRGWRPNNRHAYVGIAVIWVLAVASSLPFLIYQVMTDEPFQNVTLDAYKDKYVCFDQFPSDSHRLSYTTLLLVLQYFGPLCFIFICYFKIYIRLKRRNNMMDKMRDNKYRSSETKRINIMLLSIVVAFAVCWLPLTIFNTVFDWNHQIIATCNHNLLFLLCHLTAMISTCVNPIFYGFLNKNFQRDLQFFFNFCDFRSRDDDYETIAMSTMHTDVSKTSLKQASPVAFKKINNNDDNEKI
The experiment in a line: Y1R radioligand competition binding, whole SK-N-MC cells, [3H]UR-MK299. Particulars: SK-N-MC neuroblastoma cells, [3H]UR-MK299 c = […]. Here is the method: (§1) All radioligand binding assays were performed at intact Y receptor expressing cells at 23 ± 2 °C.
Competition binding assays at Y1R-expressing SK-N-MC neuroblastoma cells were performed as previously described using [^3H]UR-MK299 as radioligand (concentration: 0.15 nM).[33] […] (logarithmic form in the case of pKi values).
On the technique in general: Loss of bound radioactivity is the signal in a displacement assay; it reports binding, not function.

The target of data set [2] is T2, hY2R (Homo sapiens, UniProt P49146).
T2 construct: host or cells: CHO
T2 sequence (P49146 1-381): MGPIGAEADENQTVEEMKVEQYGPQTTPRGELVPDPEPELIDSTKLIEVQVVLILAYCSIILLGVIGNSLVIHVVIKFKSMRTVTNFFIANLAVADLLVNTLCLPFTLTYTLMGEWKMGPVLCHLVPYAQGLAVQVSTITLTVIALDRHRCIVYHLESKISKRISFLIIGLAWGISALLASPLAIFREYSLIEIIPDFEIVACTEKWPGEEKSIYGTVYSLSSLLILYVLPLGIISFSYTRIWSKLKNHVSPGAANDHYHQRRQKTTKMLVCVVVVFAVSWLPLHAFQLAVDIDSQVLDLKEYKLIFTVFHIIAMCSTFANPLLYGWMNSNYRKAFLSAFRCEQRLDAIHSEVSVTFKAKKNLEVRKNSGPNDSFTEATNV
The experiment in a line: Y2R radioligand competition binding, whole CHO-hY2R cells, [3H]propionyl-pNPY. The note with it: read-out: pKi ± SEM hY2R (converted). The procedure:
as §1

Data set [3] has as its target T3, hY5R (Homo sapiens, UniProt Q15761).
T3 construct: expressed in transfected cells; host or cells: HEC-1B (human endometrial cancer)
T3 sequence (Q15761 1-445): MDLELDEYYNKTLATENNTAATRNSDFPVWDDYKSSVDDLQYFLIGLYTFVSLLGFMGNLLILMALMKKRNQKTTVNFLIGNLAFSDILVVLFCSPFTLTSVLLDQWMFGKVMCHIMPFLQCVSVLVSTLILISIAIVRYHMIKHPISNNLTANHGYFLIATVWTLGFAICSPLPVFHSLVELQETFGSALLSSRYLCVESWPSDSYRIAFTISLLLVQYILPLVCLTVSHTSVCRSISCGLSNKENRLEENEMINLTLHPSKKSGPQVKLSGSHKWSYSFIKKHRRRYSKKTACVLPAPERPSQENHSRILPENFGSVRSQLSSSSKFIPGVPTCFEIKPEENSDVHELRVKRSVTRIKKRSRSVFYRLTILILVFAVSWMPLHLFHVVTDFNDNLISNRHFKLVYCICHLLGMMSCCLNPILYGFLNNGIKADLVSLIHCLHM
Put plainly: Y5R radioligand competition binding, whole HEC-1B-hY5R cells, [3H]propionyl-pNPY. The note with it: [3H]propionyl-pNPY c = 5 nM. The procedure:
as §1
(logarithmic form in the case of pKi values).

Data set [4] in a line: Chemical stability in PBS pH 7.4. It is filed as physicochemical. The note with it: PBS pH 7.4, room temperature, 48 h, 100 μM. The procedure:
The chemical stability of the fluorescent ligands 16, 17, and 18 was investigated in PBS (adjusted to pH 7.4) at 22 °C. […] After time periods of 0, 6, and 48 h, an aliquot (25 μL) was withdrawn and added to 25 μL of acetonitrile/0.04% aq. TFA 1:9 v/v to obtain a peptide solution with a concentration of 50 μM. 20 μL of this solution were subjected to analytical RP-HPLC analysis using the same system and conditions as described under Analytical HPLC, but applying a different linear gradient: 0–14 min: A/B 90:10–45:55, 14–15 min: 45:55–5:95, 15–19 min: 5:95 (isocratic). A 1:1 mixture of PBS and acetonitrile/0.04% aq. TFA 1:9 v/v (20 μL) was analyzed to obtain the blank chromatogram.

The target of data set [5] is T4, hY4R (Homo sapiens, UniProt P50391). The experiment in a line: Y4R cAMP CAMYEN assay (HEK293T-CAMYEN-hY4R cells). Also: relative to 1 µM hPP (100%). It is filed as cell-based. Also on record: expressed in transfected cells. Particulars: read-out: CAMYEN cAMP Emax ± SEM. The procedure:
The assay was performed with live HEK293T-CAMYEN-hY4R cells applying a reported protocol.[31] Experiments were performed in triplicate. Data processing was performed with GraphPad Prism 9.0 as previously described.[31]

Data set [6] concerns the target T5, Y4R (Homo sapiens, UniProt P50391). Put plainly: Y4R miniGsi recruitment assay (HEK293T-NlucN-mGsi/Y4R-NlucC cells). As to miniGsi recruitment Emax ± SEM: relative to 1 µM hPP (100%). The class given is cell-based. Also on record: expressed in transfected cells; host or cells: HEK293T. Particulars: for Emax: read-out: miniGsi recruitment Emax ± SEM; for EC50: HEK293T-NlucN-mGsi/Y4R-NlucC cells. Here is the method:
Furimazine was used as nanoluciferase substrate. The original stock was diluted 1:1000 in L15-HEPES to obtain the feed solution for the assay. Data analysis was performed based on the areas under the curves (time window: 45 min starting with the agonist addition) using GraphPad Prism 5. […] Efficacies Emax correspond to the upper plateaus of the normalized concentration–response curves.

The target in data set [7] is T4, hY4R. The experiment in a line: Y4R Ca2+ aequorin assay (CHO-hY4R-Gqi5-mtAEQ cells). It is filed as cell-based. The note with it: read-out: Ca2+-aequorin Emax ± SEM. Also on record: expressed in transfected cells; host or cells: CHO (co-expressing Gqi5 and mitochondrially targeted aequorin). The procedure:
The assay was performed with live CHO-hY4R-Gqi5-mtAEQ cells as previously described (used buffer: buffer III). Measurements were carried out on a Tecan Infinite Lumi plate reader. Data analysis was performed as reported using GraphPad Prism 5 for the calculation of the area under the curve. […] Efficacies Emax correspond to the upper plateaus of the normalized concentration–response curves.

The target in data set [8] is T6, Y4R^SwBac displaying BBVs (Homo sapiens, UniProt P50391).
T6 construct: made in house; host or cells: Sf9 insect cells (budded baculovirus particles; MultiBac, with or without the SweetBac module)
Put plainly: Fluorescence anisotropy Y4R competition binding with 16 (Y4R^SwBac BBVs). The note with it: DPBS, 16 (0.5 nM) as labeled probe, read-out: pKi FA, 137 mM Na+ (converted).
Description: Two types of MultiBac baculoviruses were used: one type encodes only for hY4R resulting in BBVs displaying Y4R devoid of a mammalian-like glycosylation (herein termed Y4R^nonglyco) and the second type additionally encodes for enzymes providing a mammalian-like glycosylation in Sf9 cells (herein termed Y4R^SwBac; see also Section Molecular Cloning). The obtained viruses were collected by centrifugation at 1600g for 10 min, and the virus titer was determined with an image-based cell-size estimation assay as described elsewhere.[64] […]
FA measurements were carried out using a Synergy NEO multimode plate reader (BioTek, Winooski, VT) and black, half-area, flat-bottom polystyrene NBS (nonbinding surface) 96-well plates (Corning, Corning, NY, product no. 3993). Polarizing excitation (530 ± 15 nm) and dual emission (590 ± 17.5 nm) filters with a dichroic mirror were used, allowing the simultaneous detection of parallelly and perpendicularly polarized fluorescence emission. […]
FA signals were measured for 1.5 h.
Data processing for FA binding assays was assisted by the software Aparecium 2.0.20 developed in house (http://www.gpcr.ut.ee/software.html). Prior to the calculation of FA using eq 1,[19] the measured parallel [I∥(t)] and perpendicular [I⊥(t)] fluorescence intensities were blank-corrected on the basis of the values obtained from wells containing BBVs but no receptor ligand. […]

The target in data set [9] is T1, hY1R. Particulars: cited from earlier work.
Data set [10] concerns the target T2, hY2R. Particulars: cited from earlier work.
Data set [11] deals with T3, hY5R. Particulars: cited from earlier work.
The target of data set [12] is hY4R-Nluc(intraECL2) (Homo sapiens, UniProt P50391, INS195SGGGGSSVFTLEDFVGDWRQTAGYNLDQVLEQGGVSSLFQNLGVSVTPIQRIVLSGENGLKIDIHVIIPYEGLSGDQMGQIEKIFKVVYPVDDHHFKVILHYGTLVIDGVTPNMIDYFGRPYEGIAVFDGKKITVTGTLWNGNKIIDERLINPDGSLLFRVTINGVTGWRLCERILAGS). Put plainly: NanoBRET Y4R competition binding with 16.
Description: One the day prior to the experiment, HEK293T-hY4R-Nluc(intraECL2) cells were detached from the culture flask by trypsinization, centrifuged (500g, 5 min), and resuspended in FBS-free L15-HEPES. The cell density was adjusted to 1.14 × 10^6 cells/mL, and the cells were seeded into white 96-well plates (Brand, Wertheim, Germany) (70 μL, 80,000 cells per well) and incubated overnight in a water-saturated atmosphere (only atmospheric CO2). […] The final BSA concentration in the assay was 1.5% (30 μL of a solution containing 5% BSA added to 70 μL of BSA-free medium, as outlined below).
All BRET measurements were performed at a temperature of 25 °C using a TECAN Infinite Lumi plate reader (Tecan, Crailsheim, Germany) equipped with an injection module. Bioluminescence of the nanoluciferase was detected using a 460/35 nm band-pass (460/35 BP) filter. The emission of the fluorescent ligands was detected through a 610 nm long-pass (610 LP) filter. […]
Total binding data from competition binding experiments were plotted as corrected BRET ratio over log(competitor concentration, M) and analyzed by a four-parameter logistic equation (log(inhibitor) vs response–variable slope, GraphPad Prism 5) to obtain the TOP value (upper curve plateau), which was used for data normalization (100% = TOP value, 0% = average of the corrected BRET ratio obtained from unspecific binding). […]
The target of data set [13] is T4, hY4R. Put plainly: Flow cytometric Y4R competition binding with 16 as labeled ligand. Also on record: expressed in transfected cells; host or cells: CHO (co-expressing Gqi5 and mitochondrially targeted aequorin). The note with it: intact CHO-hY4R-Gqi5-mtAEQ cells. The procedure: The latter was used for injection of the samples of saturation and competition binding experiments. At least three individual experiments were performed in duplicate (kinetic experiments) or triplicate (saturation and competition binding). […] Measurements were stopped after counting of 2000–10000 gated events.
2 to 3 days prior to the experiment, cells were seeded in T75 or T175 culture flasks. On the day of the experiment, cells were detached by trypsinization, suspended in culture medium, and centrifuged. […] HCl (nonlabeled ligands, saturation, and kinetic experiments).
(In flow cytometry, cells or beads pass a laser one at a time.)

The target in data set [14] is T5, Y4R. Particulars: cited from earlier work.
The target in data set [15] is T4, hY4R. Also on record: expressed in transfected cells; host or cells: CHO (co-expressing Gqi5 and mitochondrially targeted aequorin). Particulars: cited from earlier work.
For data set [16], the target named is T5, Y4R. The note with it: cited from earlier work. The source holds these as a separate data set.
Setting [17] is: read-out: pKi ± SEM hY1R (converted).
Where [18] appears, read: read-out: pKi ± SEM hY5R (converted).
[19] abbreviates: DPBS, 16 (1 nM) as labeled probe, read-out: pKi flow cytometry, 137 mM Na+ (converted).
[20] abbreviates: buffer I, 16 (0.5 nM) as labeled probe, read-out: pKi flow cytometry, Na+ free (converted).

Like-named read-outs stand apart in the source and are kept apart here. Marks after values point to notes of the source that are not given here.

Take `CC(C)C[C@H](NC(=O)[C@@H]1CCCNC(N)=NC(=O)NCCCCNC(=O)[C@H](NC(=O)CCCNC(=O)CCC#Cc2ccc3c(c2)C(C)(C)C2=C4C=C5C6=[N+](CCC5OC4CCN23)c2ccc(S(=O)(=O)[O-])cc2C6(C)C)CC(=O)N[C@@H](CCCNC(=N)N)C(=O)N[C@@H](Cc2ccc(O)cc2)C(=O)N1)C(=O)N[C@@H](CCCNC(=N)N)C(=O)N[C@@H](Cc1ccc(O)cc1)C(N)=O` (stereo partly drawn) [Compound 16]: the Ki in [1] (read-out: Ki hY1R (converted)) was 120 nM; in data set [1] (setting [17]), 123 nM; in data set [2] it was more than 1000 nM; in data set [3] (read-out: Ki hY5R (converted)), 480 nM; in data set [3] (setting [18]) it was 479 nM. Also, in data set [4], the chemical stability entry was “excellent stability”. For the same molecule, the maximal effect (Emax) (usually the size of the effect at its maximum, as opposed to the concentration needed) is 93 ± 5% in [5], 72 ± 9% in data set [6] and 66 ± 2% in data set [7].
Regarding `CC(C)C[C@H](NC(=O)[C@@H]1CCCNC(N)=NC(=O)NCCCCNC(=O)CCC(=O)N[C@@H](CCCNC(=N)N)C(=O)N[C@@H](Cc2c[nH]c3ccccc23)C(=O)N1)C(=O)N[C@@H](CCCNC(=N)N)C(=O)N[C@@H](Cc1ccc(O)cc1)C(N)=O` [Compound 5], the Ki in data set [8] was 0.55 nM; in data set [9], more than 10000 nM; in [10] it was more than 10000 nM; in [11] it was more than 3000 nM; in data set [12], 1.29 nM; in data set [13] (setting [19]), 0.708 nM. For the same molecule, the Ki in data set [13] (setting [20]) was 0.324 nM. The “pKi hY1R” value in data set [9] is listed as less than 5. Moreover, the “pKi hY2R” value in data set [10] was less than 5. The “pKi hY5R” value in data set [11] was less than 5.5. The EC50 in [6] (read-out: miniGsi recruitment EC50 (converted)) is 1.8 nM. Also, the maximal response (Emax) in [6] came to 61 ± 2%.
`CC(C)C[C@H](NC(=O)[C@@H]1CCCNC(N)=NC(=O)NCCCCNC(=O)[C@H](NC(=O)CCCNC(=O)CCCCCN2/C(=C/C=C/C=C/C3=[N+](CCCCS(=O)(=O)[O-])c4ccccc4C3(C)C)C(C)(C)c3cc(S(=O)(=O)O)ccc32)CC(=O)N[C@@H](CCCNC(=N)N)C(=O)N[C@@H](Cc2ccc(O)cc2)C(=O)N1)C(=O)N[C@@H](CCCNC(=N)N)C(=O)N[C@@H](Cc1ccc(O)cc1)C(N)=O` [Compound 17]: the Ki in [1] (setting [17]), in data set [2] and in data set [3] (setting [18]) was more than 1000 nM each time. The chemical stability entry in data set [4] is on record as “excellent stability”. Also, the Emax in data set [5] came to 90 ± 3%; in data set [6], 70 ± 9%; in data set [7] it was 71 ± 3%. The EC50 in [6] (read-out: miniGsi recruitment pEC50 ± SEM (converted)) is 85.1 nM.
On to Sulfo-Cy5-[K4]hPP (from UniProt P01298), for which the dissociation constant Kd (commonly the free concentration of one partner at which half of the binding sites on the other are occupied at equilibrium, for simple one-to-one binding) in data set [14] is 5.6 nM.
On to `CCC(=O)NCCCC(=O)N[C@@H]1CC(=O)N[C@@H](CCCNC(=N)N)C(=O)N[C@@H](Cc2ccc(O)cc2)C(=O)N[C@H](C(=O)N[C@@H](CC(C)C)C(=O)N[C@@H](CCCNC(=N)N)C(=O)N[C@@H](Cc2ccc(O)cc2)C(N)=O)CCCNC(N)=NC(=O)NCCCCNC1=O` [Compound 7], for which the Ki in [8] is 0.398 nM; in data set [12], 0.851 nM; in [13] (setting [19]) it was 1.58 nM; in [13] (setting [20]), 0.245 nM. In addition, the “pKi literature, 137 mM Na+” value in data set [15] was 9.79 ^e.
With “5-TAMRA-[K18,Nle17,30]hPP (2) (from UniProt P01298)”, in data set [16], the Kd is 26 nM.

Source of the values: article PMC11019746 (ACS Pharmacology & Translational Science, 2024).
